Assay results taken from patent publication US11002728B2, “Method for evaluating activity of G protein-coupled receptor (GPCR)” (RIKEN, priority 2017, dated 2021).

Tests used:
FFAR4 = molecular target: T1, FFAR4 (Homo sapiens, UniProt Q5NUL3); experiment: Single-molecule imaging of GPCR diffusive dynamics (DAv) in HEK293 cells; type: cell-based; conditions: 100 nM ligand, mean ± standard error, n=20 cells, vehicle 0.083
T1 construct: host or cells: HEK293
T1 sequence (Q5NUL3 1-361): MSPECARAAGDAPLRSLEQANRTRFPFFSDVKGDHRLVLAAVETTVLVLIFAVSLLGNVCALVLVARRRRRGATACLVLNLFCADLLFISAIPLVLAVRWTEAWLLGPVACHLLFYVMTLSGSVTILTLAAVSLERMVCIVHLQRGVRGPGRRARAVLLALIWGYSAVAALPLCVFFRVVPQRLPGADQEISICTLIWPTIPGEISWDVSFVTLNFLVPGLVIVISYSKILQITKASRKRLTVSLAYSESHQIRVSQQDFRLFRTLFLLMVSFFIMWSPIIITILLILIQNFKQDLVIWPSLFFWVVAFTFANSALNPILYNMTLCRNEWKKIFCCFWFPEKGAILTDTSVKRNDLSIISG
Description: (§1) HEK293 cells were cultured in a DMEM/F12 (Gibco) medium added with 15 mM HEPES (pH 7.3), 29 mM NaHCO3, and 10% FBS at 37° C. in an environment containing 5% CO2. On the day before the observation, the HEK293 cells on a 60-mm dish (IWAKI) with a cover glass (Matsunami Glass Ind., Ltd.) were transfected with a plasmid DNA (pDNA) of HaloTag-fused mGluR3 using Lipofectamine 3000 (Invitrogen). A transfection reagent and pDNA (pDNA (0.1 μg), P3000 reagent (0.2 μL), Lipofectamine 3000 reagent (2.5 μL), Opti-MEM (120 μL, Gibco)) were mixed, and the mixture was then left to stand at room temperature for 15 minutes and was added to HEK293 cells on the 60-mm dish containing DMEM/F12 (3 mL). […] After culturing at 37° C. in an environment containing 5% CO2 for 3 hours, the medium was replaced with DMEM (3 mL, Sigma) not containing phenol red and containing 10% FBS. […] TMR-labeled mGluR3 on the cell membranes of the HEK293 cells were excited with total internal reflection illumination on an inverted fluorescence microscope (TE2000, Nikon Corporation), and single-molecule imaging was performed. […]

mGluR3 [1] = molecular target: T2, mGluR3 (Mus musculus, UniProt Q9QYS2); experiment: [3H]-LY341495 binding experiment, HEK293 membrane fraction expressing mGluR3
T2 sequence (Q9QYS2 23-879): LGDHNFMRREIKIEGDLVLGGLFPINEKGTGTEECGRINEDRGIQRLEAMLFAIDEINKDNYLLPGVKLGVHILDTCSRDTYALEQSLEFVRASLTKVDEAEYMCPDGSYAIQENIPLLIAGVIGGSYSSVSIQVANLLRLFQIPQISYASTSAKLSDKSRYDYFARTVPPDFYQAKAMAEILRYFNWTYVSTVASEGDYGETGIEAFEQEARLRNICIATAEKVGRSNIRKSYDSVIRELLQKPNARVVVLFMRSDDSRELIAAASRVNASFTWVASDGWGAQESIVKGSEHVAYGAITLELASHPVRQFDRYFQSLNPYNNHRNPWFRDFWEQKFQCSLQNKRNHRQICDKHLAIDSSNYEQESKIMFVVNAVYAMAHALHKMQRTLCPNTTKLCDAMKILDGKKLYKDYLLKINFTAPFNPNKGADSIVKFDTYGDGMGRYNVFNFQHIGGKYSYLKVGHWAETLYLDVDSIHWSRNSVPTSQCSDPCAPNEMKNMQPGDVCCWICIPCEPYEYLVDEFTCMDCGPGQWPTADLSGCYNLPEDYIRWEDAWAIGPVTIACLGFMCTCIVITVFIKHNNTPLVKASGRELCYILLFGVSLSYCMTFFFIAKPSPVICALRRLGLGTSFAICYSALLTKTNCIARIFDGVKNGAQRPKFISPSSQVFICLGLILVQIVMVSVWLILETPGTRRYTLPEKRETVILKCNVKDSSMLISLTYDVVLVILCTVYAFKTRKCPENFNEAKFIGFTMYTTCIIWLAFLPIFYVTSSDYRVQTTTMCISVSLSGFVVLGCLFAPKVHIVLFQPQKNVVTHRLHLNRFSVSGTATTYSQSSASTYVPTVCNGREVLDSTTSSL
Description: HEK293 cells cultured to about 40% confluence in a 100-mm dish were transfected with mGluR3 pDNA and an empty pCAG vector as a mock each at 10 μg/dish by a calcium phosphate method. After the transfection, the cells were cultured in DMEM/F12 medium containing 10% FBS for 48 hours and were then collected, followed by centrifugation. The precipitation was washed with 1 mL of PBS (pH 7.4). Centrifugation was further performed. The precipitation was placed in a 1.5-mL tube and was homogenized with a pellet mixer in buffer A (50 mM HEPES (pH 6.5), 140 mM NaCl) in which 50% sucrose was dissolved, followed by centrifugation to separate supernatant and precipitate. […]
A cell membrane fraction containing mGluR3 was resuspended in HBSS (containing 15 mM HEPES (pH 7.1) and not containing NaHCO3, Sigma) having the same composition as that used in the single-molecule measurement, and the binding of [^3H]-LY341495 to the membrane was measured at room temperature. […] Each dot was excised from the nitrocellulose membrane and was placed in a cocktail for a liquid scintillation counter (Ultima Gold, PerkinElmer Life Sciences, Inc.), and the binding amount of [^3H]-LY341495 was quantified with LS6500 (Beckman Coulter). […] Kd was calculated from fitting result by an expression obtained by replacing the EC50 in Expression 3 mentioned above with kd. […] The IC50 was calculated based on Expression 4.

mGluR3 [2] = molecular target: T2, mGluR3; experiment: Two-color single-molecule imaging, colocalization of TMR-labeled mGluR3 and GFP-labeled CLC; type: cell-based; set-up: expressed in transfected cells; host or cells: HEK293 (pCAG-GS vector); conditions: active (100 μM LY379268) versus inactive state (100 nM LY341495)
Description: Colocalization of TMR-labeled mGluR3 and GFP-labeled CLC was defined as a track in which each bright spot was within 100 nm in the same frame. The positional accuracy of the bright spot tracking of TMR-labeled mGluR3 and GFP-labeled CLC was estimated to be 28 nm and 31 nm, respectively, from measurement of fixed samples. These values correspond to 1 SD of the displacement when fixed molecules were tracked. After image processing, the error between the positions of the same gold particle in two channels was estimated to be 18 nm. Accordingly, 100 nm corresponds to about 2 SD of the positional accuracy considering the total error. The time constant of colocalization was calculated by fitting the cumulative frequency distribution (FIG. 9(f)) by Expression 8.
The proportion of each component was calculated from the proportions of A1 and A2.

mGluR3 [3] = molecular target: T2, mGluR3; experiment: Single-molecule imaging of mGluR3 diffusive dynamics (MSD, DAv, VB-HMM diffusion states) in HEK293 cells; conditions: for IC50: IC50 of the LY379268 dependent change of DAv; for change of MSD of mGluR3: MSD-Δt plots, FIG. 1(c to e)
Description: A DNA sequence encoding HaloTag7 (Promega Corporation) was amplified by PCR and was fused to the C-terminal sequence of mouse mGluR3 using In-Fusion HD Cloning Kit (Clontech Laboratories, Inc.). In order to quantify the expression level of HaloTag-fused mGluR3 by Western blotting, the epitope sequence of a monoclonal antibody Rho 1D4 recognizing the C-terminus of bovine rhodopsin was added immediately after the HaloTag sequence. Complementary DNAs of mGluR3 were inserted into a pCAG-GS vector^21.
HEK293 cells were cultured in a DMEM/F12 (Gibco) medium added with 15 mM HEPES (pH 7.3), 29 mM NaHCO3, and 10% FBS at 37° C. in an environment containing 5% CO2. On the day before the observation, the HEK293 cells on a 60-mm dish (IWAKI) with a cover glass (Matsunami Glass Ind., Ltd.) were transfected with a plasmid DNA (pDNA) of HaloTag-fused mGluR3 using Lipofectamine 3000 (Invitrogen). A transfection reagent and pDNA (pDNA (0.1 μg), P3000 reagent (0.2 μL), Lipofectamine 3000 reagent (2.5 μL), Opti-MEM (120 μL, Gibco)) were mixed, and the mixture was then left to stand at room temperature for 15 minutes and was added to HEK293 cells on the 60-mm dish containing DMEM/F12 (3 mL). In two-color single-molecule measurement, pDNA (0.02 μg) of GFP-fused CLC was transfected together with HaloTag-fused mGluR3. After culturing at 37° C. in an environment containing 5% CO2 for 3 hours, the medium was replaced with DMEM (3 mL, Sigma) not containing phenol red and containing 10% FBS. After culturing overnight, the medium was replaced with 3 mL of DMEM containing 300 nM HaloTag TMR ligand (Promega Corporation) and not containing phenol red and FBS, followed by being left to stand at 37° C. in an environment containing 5% CO2 for 30 minutes to specifically stain the HaloTag-fused mGluR3 of the HEK293 cells. […] In single-molecule imaging, the cover glass was placed in a metal chamber (Invitrogen) and was washed with 400 μL of Hanks' balanced salt solution (HBSS (Sigma); containing 15 mM HPEPS (pH 7.1) and not containing NaHCO3) five times, followed by observation at room temperature (25° C.). TMR-labeled mGluR3 on the cell membranes of the HEK293 cells were excited with total internal reflection illumination on an inverted fluorescence microscope (TE2000, Nikon Corporation), and single-molecule imaging was performed. […] The fluorescences of TMR and GFP were wavelength dependently separated with dichroic mirror 59004b (Chroma) in a two-optical path branching system (M202J, Nikon Corporation), were allowed to pass through a band pass filter (GFP: ET525/50m, TMR: ET605/70m, Chroma), and were then photographed simultaneously by two EM-CCD cameras (ImagEM, Hamamatsu Photonics K.K.).

mGluR3 [4] = molecular target: T2, mGluR3; experiment: [35S]-GTPγS binding experiment (G protein activation ability of mGluR3, purified Go protein); type: biochemical; set-up: expressed in transfected cells; host or cells: HEK293 (pCAG-GS vector)
Description: Each mixture was left to stand at 20° C. for 30 minutes. [^35S]-GTPγS was added to the mixture to start GDP/GTPγS exchange reaction. The composition except the ligand of the final mixture solution (20 μL) was 50 mM HEPES (pH 6.5), 140 mM NaCl, 5 mM MgCl2, 0.01% DM, 0.03% sodium cholate, 5 nM [^35S]-GTPγS, 500 nM GTPγS (cold), and 500 nM GDP. A reaction stop solution (200 μL, 20 mM Tris/Cl (pH 7.4), 100 mM NaCl, 25 mM MgCl2, 500 nM GTPγS (cold), and 500 nM GDP) was added to the mixture solution at 30 seconds after the addition of [^35S]-GTPγS to stop the incorporation of [^35S]-GTPγS into G protein, and immediately all the reaction solution was passed through a nitrocellulose membrane with the dot-blot apparatus to separate [^35S]-GTPγS bound to G protein. Subsequently, the nitrocellulose membrane was washed with buffer C (200 μL, 20 mM Tris/Cl (pH 7.4), 100 mM NaCl, and 25 mM MgCl2) three times and was dried for 1 hour. Each dot was excised from the nitrocellulose membrane and was placed in a cocktail for a liquid scintillation counter (Ultima Gold, PerkinElmer Life Sciences, Inc.), and the binding amount of [^35S]-GTPγS was quantified with LS6500 (Beckman Coulter).

HRH1 = HRH1 (Homo sapiens, UniProt P35367); conditions: HRH1 in HEK293 cells, 1 μM ligand, mean ± standard error, n=20 cells; vehicle 0.064
HRH1, sequence (P35367 whole entry): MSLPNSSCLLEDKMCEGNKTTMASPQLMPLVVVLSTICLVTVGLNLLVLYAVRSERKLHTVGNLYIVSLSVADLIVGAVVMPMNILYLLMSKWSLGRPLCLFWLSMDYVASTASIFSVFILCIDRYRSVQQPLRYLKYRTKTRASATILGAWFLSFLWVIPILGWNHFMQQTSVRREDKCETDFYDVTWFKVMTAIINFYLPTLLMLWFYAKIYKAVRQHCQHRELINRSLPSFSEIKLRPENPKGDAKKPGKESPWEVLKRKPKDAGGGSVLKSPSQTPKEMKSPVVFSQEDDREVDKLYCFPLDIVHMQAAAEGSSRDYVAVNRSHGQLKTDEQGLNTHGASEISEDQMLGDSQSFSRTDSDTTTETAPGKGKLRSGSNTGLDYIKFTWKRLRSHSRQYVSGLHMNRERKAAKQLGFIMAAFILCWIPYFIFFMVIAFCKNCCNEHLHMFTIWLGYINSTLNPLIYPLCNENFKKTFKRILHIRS

HTR2A = HTR2A (Homo sapiens, UniProt P28223); experiment: Single-molecule imaging of GPCR diffusive dynamics (DAv) in HEK293 cells; type: cell-based; conditions: 10 μM ligand, mean ± standard error, n=20 cells, vehicle 0.079
HTR2A, sequence (P28223 whole entry): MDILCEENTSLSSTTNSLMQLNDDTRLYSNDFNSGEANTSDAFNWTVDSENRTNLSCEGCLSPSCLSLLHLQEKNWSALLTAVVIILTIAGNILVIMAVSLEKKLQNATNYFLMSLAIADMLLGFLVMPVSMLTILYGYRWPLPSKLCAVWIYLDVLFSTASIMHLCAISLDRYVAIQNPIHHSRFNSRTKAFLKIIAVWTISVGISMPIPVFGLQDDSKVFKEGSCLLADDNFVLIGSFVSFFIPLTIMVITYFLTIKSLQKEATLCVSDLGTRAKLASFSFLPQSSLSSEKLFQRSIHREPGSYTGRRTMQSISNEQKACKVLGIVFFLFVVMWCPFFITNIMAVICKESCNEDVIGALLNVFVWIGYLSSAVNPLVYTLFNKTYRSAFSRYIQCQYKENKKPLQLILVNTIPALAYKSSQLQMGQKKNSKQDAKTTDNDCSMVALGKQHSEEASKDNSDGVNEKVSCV

CXCR4 = molecular target: T3, CXCR4 (Homo sapiens, UniProt P61073); experiment: as above; type: cell-based; conditions: 20 nM ligand, mean ± standard error, n=20 cells, vehicle 0.087
T3 construct: host or cells: HEK293
T3 sequence (P61073 whole entry): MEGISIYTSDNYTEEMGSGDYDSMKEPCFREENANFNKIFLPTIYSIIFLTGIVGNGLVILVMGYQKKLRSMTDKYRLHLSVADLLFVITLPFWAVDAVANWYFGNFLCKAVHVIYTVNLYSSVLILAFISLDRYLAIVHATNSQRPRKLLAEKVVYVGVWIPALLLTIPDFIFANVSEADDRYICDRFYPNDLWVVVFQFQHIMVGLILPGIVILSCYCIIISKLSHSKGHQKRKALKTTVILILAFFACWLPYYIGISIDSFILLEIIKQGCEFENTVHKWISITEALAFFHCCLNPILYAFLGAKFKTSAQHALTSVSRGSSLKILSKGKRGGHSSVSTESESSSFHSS
Description: as §1

F2R = F2R (Homo sapiens, UniProt P25116); conditions: F2R in HEK293 cells, 10 μM ligand, mean ± standard error, n=20 cells; vehicle 0.084
F2R, sequence (P25116 22-425): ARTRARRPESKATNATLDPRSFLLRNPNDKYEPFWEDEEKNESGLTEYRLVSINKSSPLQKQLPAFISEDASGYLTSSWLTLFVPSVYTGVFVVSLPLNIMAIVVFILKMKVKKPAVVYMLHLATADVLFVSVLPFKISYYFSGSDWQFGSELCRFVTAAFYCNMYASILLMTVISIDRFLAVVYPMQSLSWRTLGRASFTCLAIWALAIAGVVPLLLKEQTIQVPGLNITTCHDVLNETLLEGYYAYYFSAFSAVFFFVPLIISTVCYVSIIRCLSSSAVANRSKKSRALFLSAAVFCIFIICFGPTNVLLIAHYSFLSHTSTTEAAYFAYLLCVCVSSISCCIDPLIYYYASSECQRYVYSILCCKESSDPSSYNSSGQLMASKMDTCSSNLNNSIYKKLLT

Compound: CC/C=C\C/C=C\C/C=C\C/C=C\C/C=C\C/C=C\CCC(=O)O [DHA]
- DAv, Ligand (FFAR4): 0.048 ± 0.0073 μm^2/s

Compound: N[C@@]1(C(=O)O)CO[C@H]2[C@H](C(=O)O)[C@H]21 [LY379268]
- IC50 (mGluR3 [1]): 550 ± 80 nM
- increase in the colocalization probability of mGluR3 and CLC (mGluR3 [2]; FIG. 10(e)): about 1.6 fold
- increase of the Long-time constant of colocalization of mGluR3 and CLC (mGluR3 [2]; FIG. 10(g)): about two-fold
- IC50 (mGluR3 [3]; FIG. 4(a), absence of other ligands, n=20 cells): 1190 ± 20 nM
- IC50 (mGluR3 [3]; FIG. 4(b), presence of 100 nM LY341495, n=20 cells): 1030 ± 80 nM
- change of MSD of mGluR3 (mGluR3 [3]; n=20 cells): decreased depending on the concentration
- ligand-dependent change of the proportions of the diffusion states (VB-HMM) (mGluR3 [3]; concentration dependent, FIG. 5(c, d)): increases in the immobile and slow states and a decrease in the fast state
- DAv, Ligand (mGluR3 [3]; mGluR3 in HEK293 cells, 100 μM ligand, mean ± standard error, n=20 cells, vehicle 0.047): 0.039 ± 0.0018 μm^2/s
- EC50 (mGluR3 [4]; absence of other ligands, FIG. 4(e), n=3, read-out: EC50 of the LY379268-dependent increase of the G protein activation ability of mGluR3): 25 ± 2.9 nM

Compound: NCCc1c[nH]cn1 [histamine]
- DAv, Ligand (HRH1): 0.045 ± 0.0025 μm^2/s

Compound: NCCc1c[nH]c2ccc(O)cc12 [serotonine]
- DAv, Ligand (HTR2A): 0.065 ± 0.0034 μm^2/s

Compound: CXCL12: chemokine, agonist used on CXCR4
- DAv, Ligand (CXCR4): 0.068 ± 0.0017 μm^2/s

Compound: MNI137
- influence on the binding affinity of LY379268 (mGluR3 [1]; 1 μM MNI137, competition with 100 nM [3H]-LY341495, FIG. 4(d)): did not influence the binding affinity of LY379268
- effect on LY379268 concentration-dependent change of DAv (mGluR3 [3]; 1 μM, presence of 100 nM LY341495, FIG. 4(b)): the LY379268 concentration-dependent decrease of DAv was suppressed
- change of MSD of mGluR3 (mGluR3 [3]; n=20 cells): the LY379268-dependent decrease of the MSD was suppressed
- effect on LY379268-dependent G protein activation ability (mGluR3 [4]; 1 μM MNI137, 100 nM LY341495 present, FIG. 4(f)): suppresses the LY379268-dependent increase of G protein activation ability

Compound: TRAP-6
- DAv, Ligand (F2R): 0.060 ± 0.0017 μm^2/s
